Laboratory results taken from US20040053966A1, “Chemical derivatives and their application as antitelomerase agent” (Aventis Pharms S.A., priority 1999, published 2004).

Tests used:
[1] = test system: G-quadruplex of oligonucleotide GGGTTAGGGTTAGGGTTAGGG (3.5 repeats of the human telomeric motif); test: G-quadruplex stabilizing activity, fluorescence Tm (FAM+DABCYL oligonucleotide); type: binding; conditions: test product 1 μM, oligonucleotide 0.2 μM, 0.1 M LiCl, 10 mM cacodylate pH 7.6; reference without product 44° C.
From the text: The G-quadruplex stabilizing activity may be determined by a method using the formation of a complex with fluorescein of which the experimental protocol is described below. Oligonucleotides […] The oligonucleotide FAM+DABCYL carries the catalogue reference OL-0371-0802. It has the sequence: […] The fluorescein is attached to the 5' end, the DABCYL to the 3' end, by the chemical arms described by Eurogentec. The concentration of the samples is checked by spectrophotometry, recording the absorbance spectrum between 220 and 700 nm and using the molar extinction coefficient provided by the supplier. Buffers All the experiments were carried out in a 10 mM sodium cacodylate buffer pH 7.6 containing 0.1 M lithium chloride (or sodium chloride). The absence of fluorescent contamination in the buffer was checked beforehand. The fluorescent oligonucleotide is added at the final concentration of 0.2 μM. Study of Fluorescence All the measurements of fluorescence were carried out on a Spex Fluorolog DMlB apparatus, using an excitation line width of 1.8 nm and an emission line width of 4.5 nm. The samples are placed in a microquartz cuvette of 0.2×1 cm. The temperature of the sample is controlled by an external water bath. The oligonucleotide alone was analysed at 20, 30, 40, 50, 60, 70 and 80° C. The emission spectra are recorded using an excitation wavelength of 470 nm. The excitation spectra are recorded using either 515 nm or 588 nm as emission wavelength. The spectra are corrected for the response of the instrument by reference curves. A high extinction (80-90%) of the fluorescence of fluorescein at room temperature is observed, in agreement with an intramolecular folding of the oligonucleotide at 20° C. in the form of a G-quadruplex, which induces juxtaposition of its [NT] ends which are respectively linked to fluorescein and to DABCYL. This juxtaposition causes an already-described phenomenon of extinction of fluorescence which is used for “molecular beacons”. Fluorescence Tm: […] The samples are then allowed to incubate for at least 1 hour at 20° C. before each measurement. The use of longer incubation times (up to 24 hours) has no influence on the result obtained. Each experiment allows the measurement of only one sample. The latter is first incubated at an initial temperature of 20° C., heated to 80° C. over 38 minutes, left for 5 minutes at 80° C. and then cooled to 20° C. over 62 minutes. During this time, the fluorescence is measured simultaneously at two emission wavelengths (515 nm and 588 nm) using 470 nm as excitation wavelength. A measurement is carried out every 30 seconds. The temperature of the water bath is recorded in parallel, and the fluorescence profile as a function of the temperature is reconstituted from these values. The fluorescence profiles are then normalized between 20° C. and 80° C., and the temperature for which the intensity of emission at 515 nm is the mean of those at high and low temperature is called Tm. Under these conditions, the Tm of the reference sample without addition of product is 44° C. in a lithium chloride buffer. This temperature is increased to more than 55° C. in a sodium chloride buffer. The addition of a G-quadruplex-stabilizing compound induces an increase in the Tm. This increase is judged to be significant if it is greater than […].

[2] = test system: human telomerase (HL60 cell extract); test: Antitelomerase activity, TRAP (extension of oligonucleotide TS and PCR amplification); type: biochemical; conditions: telomerase extract from HL60 cells
[3] = test system: A549 cells; test: Cytotoxic activity on human tumour line A549 (neutral red); type: cell-based; conditions: Homo sapiens, A549, 96 h, 96 hours incubation, read-out: Cytotox. A549 IC50
Description: The Cytotoxic Biological Activity on Human Tumour Lines is Determined According to the Following Experimental Protocol:
The cells at the exponential growth phase are trypsinized, washed in 1× PBS and are inoculated in 96-well microplates (Costar) in an amount of 4×10^4 cells/ml for A549 and of 1.5×10^4 cells/ml (0.2 ml/well) and then incubated for 96 hours in the presence of variable concentrations of product to be studied (10, 1, 0.1 and 0.01 μg/ml, each point in quadruplicate). 16 hours before the end of the incubation, 0.02% final of neutral red is added to each well. At the end of the incubation, the cells are washed with 1× PBS and lysed with 1% sodium lauryl sulphate. The cellular incorporation of the dye, which reflects cellular growth, is evaluated by spectrophotometry at a wavelength of 540 nm for each sample with the aid of a Dynatech MR5000 reading apparatus.
(compound value−blank value/cell control value−blank value)×100.

Structure (SMILES)	G4 Tm [1] [°C]	IC50 [2] [µM]	IC50 [3] [µM]
CCn1c2ccccc2c2cc(Nc3nc(Nc4ccc5nc(C)cc(N)c5c4)nc(SC)n3)ccc21 [Example 18-11]	48	3.3	1.3
CCN(CC)c1nc(Nc2ccc3ncccc3c2)nc(Nc2ccc3nc(C)cc(N)c3c2)n1 [Example 19-1]	58	1	1.5
